In paper PMC3637257, “A Novel Anti-Tumor Inhibitor Identified by Virtual Screen with PLK1 Structure and Zebrafish Assay” (PLoS ONE, 2013):

System: PC-3
Assay: cells
Design: MTS cell viability / proliferation assay of PC-3 prostate cancer cells
Details: Homo sapiens, PC-3, 72 h; read-out: IC50 inhibiting PC-3
Procedure: Fifteen human cancer cell lines were tested in our studies. Initial screens used human lung cancer cell A549, human epithelial cervical cancer Hela cells, human prostate cancer PC-3 cells, human epidermoid cancer KB-31 cells, human breast cancer MDA-MB-231 cells, and human pancreatic cancer HPAF. These cell lines were obtained commercially from ATCC. The first six cell cultures were maintained in 75 cm^2 cell culture flasks in which the cells were passaged at 70–80% confluence every 2–3 days. All cancer cells were cultured in RPMI 1640 containing 10% fetal calf serum, 100 U/mL penicillin, 100 µg/mL streptomycin, and 2 mM L-lutamine (complete RPMI medium). All cancer cells were plated at 1×10^4 cells per well in a 96 well plate. Drugs of different concentrations were then added. MTS assays (CellTiter 96® AQueous One Solution Cell Proliferation Assay, Promega) were performed after 72 h post treatment to determine the cell viability following drug administration.

Compound	IC50
COc1ccc2nc(SCC(=O)Nc3cc(Cl)ccc3OC)c(C#N)cc2c1 [5b]	10 µM
COc1ccc2nc(SCC(=O)Nc3ccccc3Cl)c(C#N)cc2c1 [5e]	10 µM
COc1ccc2nc(SCC(=O)Nc3cnccn3)c(C#N)cc2c1 [5h]	10 µM
COc1ccc2nc(SCC(=O)Nc3ccccc3Br)c(C#N)cc2c1 [5d]	10 µM
COc1ccc(OC)c(NC(=O)CSc2nc3ccc(OC)cc3cc2C#N)c1 [5c]	10 µM
COc1ccc2nc(SCC(=O)Nc3ccccc3OC)c(C#N)cc2c1 [5a]	40 µM
COc1ccc2nc(SCC(=O)Nc3ccc(Cl)cn3)c(C#N)cc2c1 [5g]	10 µM
COc1ccc2nc(SCC(=O)Nc3cc(C(F)(F)F)ccc3C(F)(F)F)c(C#N)cc2c1 [5i]	20 µM
COc1ccc2nc(SCC(=O)Nc3ccccn3)c(C#N)cc2c1 [5f]	10 µM

More lines, now with the values ahead:

IC50	Compound
40 µM	Cc1ccc2nc(SCC(=O)Nc3ccccc3C(F)(F)F)c(C#N)cc2c1 [5r]
20 µM	COc1ccc(C)cc1NC(=O)CSc1nc2ccc(Cl)cc2cc1C#N [5o]
20 µM	COc1ccc(C)cc1NC(=O)CSc1nc2ccc(C)cc2cc1C#N [5q]
20 µM	CCc1cccc(CC)c1NC(=O)CSc1nc2ccc(OC)cc2cc1C#N [5m]
10 µM	COc1ccc2nc(SCC(=O)Nc3ccc(Cl)cc3Cl)c(C#N)cc2c1 [5l]
1 µM	COc1ccc2nc(SCC(=O)Nc3cc(C)ccc3OC)c(C#N)cc2c1 [I2]
10 µM	COc1ccc2nc(SCC(=O)Nc3ccc(N(C)C)cc3)c(C#N)cc2c1 [5n]
10 µM	N#Cc1cc2cc(Cl)ccc2nc1SCC(=O)Nc1ccccc1C(F)(F)F [5p]
40 µM	COc1ccc(C)cc1NC(=O)CSc1nc2ccc(Br)cc2cc1C#N [5s]
10 µM	COc1ccc2nc(SCC(=O)Nc3nccs3)c(C#N)cc2c1 [5j]
30 µM	COc1ccc2nc(SCC(=O)Nc3ccccc3O)c(C#N)cc2c1 [5k]
50 µM	N#Cc1cc2cc(Br)ccc2nc1SCC(=O)Nc1ccccc1C(F)(F)F [5t]
